Laboratory results: patent publication US20250114361A1, “PYRAZOLOPYRIMIDINE COMPOUND AND PHARMACEUTICAL USE THEREOF” (Japan Tobacco Inc., priority 2022, published 2025)
pIC50: −log10 of the molar value.

Columns and labels:
[1] = tested on: mouse strain expressing CAPS-related NLRP3 mutations; settings: in vivo; cited from earlier work
NLRP3 inflammasome = NLRP3 inflammasome (Homo sapiens (Human), UniProt Q96P20); assay: NLRP3 inflammasome inhibitory activity: inhibition of IL-1β production in THP1-Null cells (PMA, LPS, Nigericin); format: cell-based; settings: for pIC50: Nigericin 7.5 μmol/L
Chain of NLRP3 inflammasome (Q96P20 whole entry): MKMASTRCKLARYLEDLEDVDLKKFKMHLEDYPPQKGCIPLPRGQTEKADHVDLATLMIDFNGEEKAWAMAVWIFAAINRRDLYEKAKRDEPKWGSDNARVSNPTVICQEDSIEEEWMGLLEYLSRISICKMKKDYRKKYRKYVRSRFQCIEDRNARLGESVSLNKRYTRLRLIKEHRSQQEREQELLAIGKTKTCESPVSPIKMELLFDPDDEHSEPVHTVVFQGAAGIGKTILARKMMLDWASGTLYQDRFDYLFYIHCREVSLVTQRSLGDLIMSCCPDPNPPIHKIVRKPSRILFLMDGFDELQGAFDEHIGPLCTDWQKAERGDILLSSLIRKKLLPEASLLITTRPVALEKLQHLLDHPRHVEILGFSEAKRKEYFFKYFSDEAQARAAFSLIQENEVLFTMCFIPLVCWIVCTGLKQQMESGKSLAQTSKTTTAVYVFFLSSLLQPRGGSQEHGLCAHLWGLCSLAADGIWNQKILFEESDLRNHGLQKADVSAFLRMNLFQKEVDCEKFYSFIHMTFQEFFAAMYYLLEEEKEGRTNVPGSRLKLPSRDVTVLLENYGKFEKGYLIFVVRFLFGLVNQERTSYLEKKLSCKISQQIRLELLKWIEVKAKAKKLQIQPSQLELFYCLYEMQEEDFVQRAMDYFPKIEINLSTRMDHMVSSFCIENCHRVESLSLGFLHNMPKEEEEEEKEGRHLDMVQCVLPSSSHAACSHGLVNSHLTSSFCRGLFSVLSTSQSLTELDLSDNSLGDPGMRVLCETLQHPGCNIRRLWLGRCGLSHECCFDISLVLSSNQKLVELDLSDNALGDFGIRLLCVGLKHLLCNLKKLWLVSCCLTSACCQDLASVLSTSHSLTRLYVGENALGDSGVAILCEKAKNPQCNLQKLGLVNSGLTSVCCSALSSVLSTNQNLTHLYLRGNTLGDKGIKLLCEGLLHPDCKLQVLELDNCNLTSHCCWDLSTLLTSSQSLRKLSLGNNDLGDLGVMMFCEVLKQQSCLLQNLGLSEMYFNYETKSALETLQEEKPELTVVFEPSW
Experimental: The NLRP3 inflammasome inhibitory activity of test compounds were evaluated on the basis of the inhibitory activity of the IL-1β production in THP1-Null cells (Product Number: thp-null, InvivoGen). Cells were maintained for culture in RPMI-1640 media containing 10% (v/v) fetal bovine serum, 25 mmol/L HEPES, 100 U/mL penicillin, 100 μg/mL streptomycin, 100 μg/mL normocin, and 200 μg/mL hygromycin B (set at 37° C., 5% CO2/95% air).
Cells were suspended with media for assay containing 0.5 μmol/L PMA (RPMI-1640 media containing 10% (v/v) fetal bovine serum, 100 U/mL penicillin, and 100 μg/mL streptomycin), and the suspended cells were seeded on Corning (registered trademark) 384-well Flat Clear Bottom Black Polystyrene TC-treated Microplates (25,000 cells/25 μL/well), followed by incubation (set at 37° C., 5% CO2/95% air) overnight. The supernatant of the culture was removed, and thereto was added media for assay (25 μL/well) containing 1 μg/mL Lipopolysaccharides (Product Number: L2654, Sigma-Aldrich (registered trademark)). Then, the culture was further incubated for 3 hours (set at 37° C., 5% CO2/95% air). The supernatant of the culture was removed. Then, a vehicle solution prepared from Opti-MEM (trademark) medium (Product Number: 31985-070, Invitrogen) was added to blank-setting wells and control-setting wells (20 μL/well), followed by incubation for 15 minutes (set at 37° C., 5% CO2/95% air). A solution containing a test compound (20 μL/well) was added to test compound-setting wells. Further, Opti-MEM (trademark) medium containing Nigericin (Product Number: N7143, Sigma-Aldrich (registered trademark)) was added to the control-setting wells and test compound-setting wells (5 μL/well), followed by incubation for 1.5 hours (set at 37° C., 5% CO2/95% air). The final concentration of Nigericin was adjusted to be 7.5 μmol/L. 5 μL/well of Opti-MEM (trademark) medium was added to the blank-setting wells. The supernatant of the culture was cryonically stored (set at −20° C.) until measurement of IL-1β.
The amount of IL-1β in the culture supernatant was quantitated with AlphaLISA (registered trademark) Human IL-1β Detection Kit (Product Number: AL220C, Perkin Elmer). Fluorescence intensity was measured with a microplate reader EnSpier (Model number: 2300-00J, Perkin Elmer) or EnSight (Model number: HH34000000, Perkin Elmer) according to procedure manuals attached thereto. Inhibition rates of the test compound-setting wells were calculated on the basis of 100% for the blank-setting wells and 0% for the control-setting wells. IC50 values (i.e., 50% inhibitory concentrations) of the test compounds were calculated by logistic regression analysis.

MOG35-55EAE model mice = settings: administration after the onset; cited from earlier work
[2] = tested on: pathological models of depressive illness; settings: in vivo; cited from earlier work
[3] = tested on: maternal immune activation (MIA) model; settings: administration to the mother; cited from earlier work
[4] = tested on: intracerebral bleeding model rats; settings: cited from earlier work
[5] = tested on: α-synuclein PFF injected mice; settings: mouse, in vivo; cited from earlier work
[6] = tested on: intestinal perforation model; settings: in vivo; cited from earlier work
[7] = tested on: mice infected with SARS-CoV-2; settings: mouse, in vivo; cited from earlier work
[8] = tested on: middle cerebral artery occlusion (MCAO) mice; settings: MCAO model; cited from earlier work
TBI model mice = settings: mouse, in vivo; cited from earlier work
[9] = tested on: STZ-induced diabetic mice; settings: mouse, in vivo; cited from earlier work
APP/PS1 mice = settings: mouse, in vivo; cited from earlier work
R6/2 mice = settings: mouse, in vivo; cited from earlier work
[10] = tested on: mouse model of deoxycorticosterone acetate-salt; settings: in vivo; cited from earlier work
microglia = settings: cited from earlier work
[11] = tested on: mice with spinal cord injury; settings: mouse, in vivo; cited from earlier work
[12] = tested on: pilocarpine-induced epilepsy model mice; settings: mouse, in vivo; cited from earlier work
[13] = tested on: intra-articular urate-injected arthritis model; settings: in vivo; cited from earlier work

Row | SMILES | pIC50 (NLRP3 inflammasome) | further results
1 | O=C(O)c1ccc(/C=C2/SC(=S)N(Cc3cccc(C(F)(F)F)c3)C2=O)cc1 [CY-09] | – | systemic lethal inflammation and survival [1]: suppressed systemic lethal inflammation and improved the survival
2 | CCn1ccc(-c2nc3nn(-c4c(C)cc(Br)cc4C)cc3c(=O)[nH]2)n1 [Example 30] | 7.40 | –
3 | Cc1cc(Br)cc(C)c1-n1cc2c(=O)[nH]c(-c3cc(C(F)(F)F)ncn3)nc2n1 [Example 31] | 6.03 | –
4 | Cc1cc(Br)cc(C)c1-n1cc2c(=O)[nH]c(-c3ccnc(C(F)(F)F)n3)nc2n1 [Example 32] | 7.11 | –
5 | Cc1cc(C(F)(F)F)cc(C)c1-n1cc2c(=O)[nH]c(-c3ccncc3F)nc2n1 [Example 33] | 7.66 | –
6 | COc1nccc(-c2nc3nn(-c4c(C)cc(Br)cc4C)cc3c(=O)[nH]2)n1 [Example 34] | 7.57 | –
7 | Cc1cc(Br)cc(C)c1-n1cc2c(=O)[nH]c(-c3ccncc3F)nc2n1 [Example 35] | 7.62 | –
8 | Cc1cc(C2CC2)cc(C)c1-n1cc2c(=O)[nH]c(-c3ccncc3F)nc2n1 [Example 36] | 7.80 | –
9 | Cc1cc(Br)cc(C)c1-n1cc2c(=O)[nH]c(-c3nn(C)cc3F)nc2n1 [Example 37] | 7.44 | –
10 | Cc1cc(C2CC2)cc(C)c1-n1cc2c(=O)[nH]c(-c3nn(C)cc3F)nc2n1 [Example 38] | 7.82 | –
11 | Cc1cc(C2CC2)cc(C)c1-n1cc2c(=O)[nH]c(-c3cn(C)cn3)nc2n1 [Example 39, 2-(4-cyclopropyl-2,6-dimethylphenyl)-6-(1-methyl-1H-imidazol-4-yl)-2,5-dihydro-4H-pyrazolo[3,4-d]pyrimidin-4-one] | 7.64 | –
12 | COCc1cc(C2CC2)cc(C)c1-n1cc2c(=O)[nH]c(-c3ccn(C)n3)nc2n1 [Example 40] | 8.20 | –
13 | Cc1cc(C(C)(F)F)cc(C)c1-n1cc2c(=O)[nH]c(-c3cn(C)cn3)nc2n1 [Example 41, 2-{4-(1,1-difluoroethyl)-2,6-dimethylphenyl}-6-(1-methyl-1H-imidazol-4-yl)-2,5-dihydro-4H-pyrazolo[3,4-d]pyrimidin-4-one] | 7.40 | –
14 | Cc1cc(C(C)(F)F)cc(C)c1-n1cc2c(=O)[nH]c(-c3ccncn3)nc2n1 [Example 42] | 7.85 | –
15 | Cc1cc(C2CC2)cc(C)c1-n1cc2c(=O)[nH]c(-c3ccncn3)nc2n1 [Example 43] | 8.37 | –
16 | Cc1cccc(C)c1-n1cc2c(=O)[nH]c(-c3ccn(C)n3)nc2n1 [Example 44] | 6.06 | –
17 | Cc1cc(C2(F)CC2)cc(C)c1-n1cc2c(=O)[nH]c(-c3ccn(C)n3)nc2n1 [Example 46] | 8.51 | –

Row | SMILES | pIC50 (NLRP3 inflammasome) | further results
18 | Cc1cc(C2CC2)cc(C)c1-n1cc2c(=O)[nH]c(-c3cnn(C)c3)nc2n1 [Example 47] | 8.17 | –
19 | Cc1cc(I)cc(C)c1-n1cc2c(=O)[nH]c(-c3ccn(C)n3)nc2n1 [Example 48] | 8.60 | –
20 | Cc1cc(C2CC2)cc(CO)c1-n1cc2c(=O)[nH]c(-c3ccn(C)n3)nc2n1 [Example 49] | 7.43 | –
21 | Cc1csc(-c2nc3nn(-c4c(C)cc(C5CC5)cc4C)cc3c(=O)[nH]2)n1 [Example 50] | 8.22 | –
22 | Cc1cc(C2(O)CC2)cc(C)c1-n1cc2c(=O)[nH]c(-c3ccn(C)n3)nc2n1 [Example 51] | – | inhibition at 0.3 µM (NLRP3 inflammasome; at 0.3 μM): 35%
23 | Cc1cc(C2CC2)cc(C)c1-n1cc2c(=O)[nH]c(-c3cscn3)nc2n1 [Example 52] | 8.70 | –
24 | Cc1cc(C2CC2)cc(C)c1-n1cc2c(=O)[nH]c(-c3cnn4c3OCCC4)nc2n1 [Example 53] | 6.62 | –
25 | Cc1cc(C2CC2)cc(C)c1-n1cc2c(=O)[nH]c(-c3cc4n(n3)CCOC4)nc2n1 [Example 54] | 8.05 | –
26 | Cc1cc(C2CC2)cc(C)c1-n1cc2c(=O)[nH]c(-c3cc4n(n3)CCCO4)nc2n1 [Example 55] | 7.62 | –
27 | Cn1ccc(-c2nc3nn(-c4cc5c(cc4Cl)OCCC5)cc3c(=O)[nH]2)n1 [Example 56] | 7.08 | –
28 | Cc1cc(C2CC2)cc(C)c1-n1cc2c(=O)[nH]c(-c3cc4n(n3)CCC4)nc2n1 [Example 57] | 8.05 | –
29 | Cc1cc(C(C)(F)F)cc(C)c1-n1cc2c(=O)[nH]c(-c3cscn3)nc2n1 [Example 58] | 8.52 | –
30 | Cn1ccc(-c2nc3nn(-c4cc5c(cc4Cl)CCC5)cc3c(=O)[nH]2)n1 [Example 59, 2-(6-chloro-2,3-dihydro-1H-inden-5-yl)-6-(1-methyl-1H-pyrazol-3-yl)-2,5-dihydro-4H-pyrazolo[3,4-d]pyrimidin-4-one] | 7.47 | –
31 | Cc1cc(C(C)(F)F)cc(C)c1-n1cc2c(=O)[nH]c(-c3nc[nH]n3)nc2n1 [Example 60] | 6.41 | –
32 | COc1ccc(Cl)cc1C(=O)NCCc1ccc(S(=O)(=O)NO)cc1 [JC-171] | – | impairment of motor function (MOG35-55EAE model mice): inhibited the impairment of motor function
33 | CC(C)(O)c1coc(S(=O)(=O)NC(=O)Nc2c3c(cc4c2CCC4)CCC3)c1 [MCC950] | – | depressive symptoms [2]: improves depressive symptoms; ASD symptoms in offspring [3]: suppresses ASD symptoms in offspring; neuroprotective effects [4]: showed neuroprotective effects; NLRP3 activation and neuronal death of dopamine neurons in the substantia nigra [5]: inhibits NLRP3 activation in the substantia nigra and suppresses neuronal death of dopamine neurons in the substantia nigra; NLRP3 inflammasome activation and memory impairment [6]: NLRP3 inflammasome activation is suppressed and the memory impairment is improved; NLRP3 inflammasome activation in the lung and dysregulated immune response [7]: inhibits NLRP3 inflammasome activation in the lung and suppresses the dysregulated immune response; neuroprotective effects [8]: showed neuroprotective effects; IL-1β production and neurological symptoms after brain injury (TBI model mice): inhibits IL-1β production in TBI model mice and suppresses the development of neurological symptoms after brain injury; increased vascular permeability [9]: alleviated increased vascular permeability; NLRP3 activation in microglia and cognitive dysfunction (APP/PS1 mice): suppresses NLRP3 activation in microglia and improves cognitive dysfunction; NLRP3 inflammasome activation, neuronal death in the striatum, symptom progression (R6/2 mice): inhibits NLRP3 inflammasome activation in the striatum of R6/2 mice, suppresses neuronal death in the striatum, and suppresses symptom progression; hypertension [10]: suppress hypertension; NLRP3 activation in microglia and IL-1β production (microglia): inhibits SOD1G93A and TDP-43 protein-induced NLRP3 activation in microglia and decreases IL-1β production; NLRP3 activation and IL-1β expression in the spinal cord, recovery of motor function [11]: NLRP3 activation and IL-1β expression in the spinal cord are suppressed, and the recovery of motor function is promoted; apoptosis of hippocampal neurons [12]: suppress apoptosis of hippocampal neurons
34 | CS(=O)(=O)CCC#N [OLT1177] | – | arthritis [13]: suppressed arthritis
